# Test results from PubChem BioAssay (NCI).
#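 Assay format: 96-well plates, 48-hour exposure. GI50 marks 50% less growth. The concentration for full growth arrest is given as TGI.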
# Key:
# Assay in all cases: growth of human tumour cells (NCI), 48 h
# SK-MEL-5 melanoma = test system: SK-MEL-5 melanoma
# SF-539 CNS = test system: SF-539 CNS
# COLO 205 colon = test system: COLO 205 colon
# HCT-15 colon = test system: HCT-15 colon
# DU-145 prostate = test system: DU-145 prostate
# KM12 colon = test system: KM12 colon
# U251 CNS = test system: U251 CNS
# OVCAR-3 ovarian = test system: OVCAR-3 ovarian
# HT29 colon = test system: HT29 colon
# LOX IMVI melanoma = test system: LOX IMVI melanoma
SMILES,TGI (SK-MEL-5 melanoma) [µM],TGI (SF-539 CNS) [µM],TGI (COLO 205 colon) [µM],TGI (HCT-15 colon) [µM],TGI (DU-145 prostate) [µM],TGI (KM12 colon) [µM],TGI (U251 CNS) [µM],TGI (OVCAR-3 ovarian) [µM],TGI (HT29 colon) [µM],TGI (LOX IMVI melanoma) [µM],GI50 (SK-MEL-5 melanoma) [µM],GI50 (SF-539 CNS) [µM],GI50 (HT29 colon) [µM],GI50 (COLO 205 colon) [µM],GI50 (HCT-15 colon) [µM],GI50 (DU-145 prostate) [µM],GI50 (LOX IMVI melanoma) [µM],GI50 (KM12 colon) [µM],GI50 (U251 CNS) [µM],GI50 (OVCAR-3 ovarian) [µM]
O=C1/C(=C/c2ccc(Cl)cc2)Oc2cc(O)ccc21,51.5,61.3,> 100,> 100,> 100,> 100,76.1,96.1,–,–,–,–,–,–,–,–,–,–,–,–
COc1ccc(-n2c(SC(CN3CCOCC3)CN3CCCC3=O)nc3ccccc3c2=O)cc1 (configuration not stated),> 100,> 100,> 100,> 100,> 100,> 100,> 100,> 100,> 100,–,–,–,–,–,–,–,–,–,–,–
Oc1c(CN2CCCC2)ccc2cccnc12,> 67.7,> 78.5,71.5,> 41.2,> 100,> 100,> 100,> 82.7,> 69,60.5,–,–,–,–,–,–,–,–,–,–
CC(C)(C)NC1=NC(C(F)(F)F)(C(F)(F)F)NC(=O)N1,80.5,> 100,–,> 100,> 100,> 100,> 100,> 100,> 100,> 100,–,–,–,–,–,–,–,–,–,–
Nc1nc(Cl)cc(OCC2(CO)CCCC2)n1,> 100,> 100,–,> 100,> 100,–,> 100,> 100,> 100,> 100,–,–,–,–,–,–,–,–,–,–
Cn1c(-c2ccc[se]2)ccc1-c1ccc(C=O)[se]1,> 100,23,> 49.4,> 100,> 100,> 100,25.4,5.71,> 100,30.1,–,–,–,–,–,–,–,–,–,–
Cc1nn(C(=O)c2ccccc2O)c2c1C(c1ccc(O)cc1O)SC(N)=N2 (configuration not stated),> 10,> 10,> 10,> 10,> 10,> 10,> 10,> 10,> 10,> 10,–,–,–,–,–,–,–,–,–,–
Cc1ccc(Cc2cc(N3CCN(c4cccc(Cl)c4)CC3)nnc2C)cc1,41.6,> 100,73.8,> 100,> 100,> 100,> 100,> 100,81.2,–,–,–,–,–,–,–,–,–,–,–
O=c1[nH]c(=O)c2ncn(-c3ccc([N+](=O)[O-])cn3)c2[nH]1,> 100,> 100,> 100,> 100,> 100,> 100,> 100,> 100,> 100,> 100,–,–,–,–,–,–,–,–,–,–
O=C1/C(=C/c2ccc(O)cc2)CCCC1CN1CCCCC1 (configuration not stated),17.8,8.45,4.02,2.71,16.6,4.93,22.3,14.9,6.91,3.09,–,–,–,–,–,–,–,–,–,–
CCOC(=O)/C=C(/C(=O)OCC)n1cc(C)c(=O)n(Cc2cnnn2COCCOC(C)=O)c1=O,51.5,19.4,11.8,> 49.1,> 52.8,56.2,57.1,32.3,27.6,32,–,–,–,–,–,–,–,–,–,–
O=C(CN1CCCC1=O)CS(=O)(=O)c1ccccc1,> 100,> 100,> 100,–,> 100,> 100,> 100,> 100,> 100,> 100,–,–,–,–,–,–,–,–,–,–
COC(=O)CN(CC(=O)NCCCBr)C1CCCCC1N(CC(=O)OC)CC(=O)OC (configuration not stated),> 100,> 100,> 100,> 100,> 100,> 100,> 100,> 100,> 100,> 100,–,–,–,–,–,–,–,–,–,–
COc1cccc2c1NC(=O)Cc1c-2[nH]c2ccccc12,> 100,> 100,> 100,> 100,> 100,> 100,> 100,> 100,> 100,> 100,–,–,–,–,–,–,–,–,–,–
Clc1ccc(CCNC2(c3cc4ccccc4s3)CCCCC2)cc1Cl,31.7,46.7,49.2,37.7,> 100,61.8,65.4,49.2,87.1,35.6,–,–,–,–,–,–,–,–,–,–
C/C=C1/CN2CCC34c5ccccc5N(C)C23C2CC1C4(C(=O)OC)C(OC(C)=O)O2 (configuration not stated),> 100,> 100,> 100,> 100,> 100,> 100,> 100,> 100,> 100,> 100,–,–,–,–,–,–,–,–,–,–
COc1ccccc1NC(=S)N=Nc1c(O)[nH]c2ccccc12,> 100,> 100,> 100,> 100,13.7,> 100,> 100,> 100,> 100,> 100,–,–,–,–,–,–,–,–,–,–
COC(=O)Nc1nc2ccc(S(=O)(=O)Nc3ccccn3)cc2[nH]1,> 100,52.6,> 100,> 100,> 100,> 100,> 100,> 100,> 100,> 100,–,–,–,–,–,–,–,–,–,–
COC(C/C(=C/CO[Si](C(C)C)(C(C)C)C(C)C)C(=O)N(C(=O)OC(C)(C)C)c1ccccc1I)OC,> 100,–,> 100,> 100,> 100,> 100,> 100,> 100,> 100,49.8,–,–,–,–,–,–,–,–,–,–
O=C(NC(=S)Nc1ccc([N+](=O)[O-])cc1)c1ccc2c(c1)Sc1ccccc1O2,> 100,> 100,> 100,> 100,> 100,> 100,> 100,> 100,> 100,> 100,–,–,–,–,–,–,–,–,–,–
O=C(c1ccccc1)N1CCN(C(=S)NC2CCCCC2)C1=S,34.4,27.7,34,33.2,57.9,30.9,21.6,30.7,44.1,31.1,–,–,–,–,–,–,–,–,–,–
COC(=O)CNC(=O)C(Cc1ccccc1)NC(=O)c1ccc(-c2ccc(Cl)cc2Cl)o1 (configuration not stated),> 100,> 100,30.2,89.4,> 100,91.2,> 100,72.5,52.7,69,–,–,–,–,–,–,–,–,–,–

SMILES,TGI (SK-MEL-5 melanoma) [µM],TGI (SF-539 CNS) [µM],TGI (COLO 205 colon) [µM],TGI (HCT-15 colon) [µM],TGI (DU-145 prostate) [µM],TGI (KM12 colon) [µM],TGI (U251 CNS) [µM],TGI (OVCAR-3 ovarian) [µM],TGI (HT29 colon) [µM],TGI (LOX IMVI melanoma) [µM],GI50 (SK-MEL-5 melanoma) [µM],GI50 (SF-539 CNS) [µM],GI50 (HT29 colon) [µM],GI50 (COLO 205 colon) [µM],GI50 (HCT-15 colon) [µM],GI50 (DU-145 prostate) [µM],GI50 (LOX IMVI melanoma) [µM],GI50 (KM12 colon) [µM],GI50 (U251 CNS) [µM],GI50 (OVCAR-3 ovarian) [µM]
CC(=O)OCC1OC(N2C(=O)NC(=O)C3C=C4CCCCC4=CC32)CC1OC(C)=O (configuration not stated),–,> 100,–,> 100,> 100,> 100,> 100,> 100,> 100,> 100,–,–,–,–,–,–,–,–,–,–
COC(=O)c1c(O)ccc2c1c1cc3ccccc3cc1n2Cc1cc(OC)cc(OC)c1,18.5,–,> 36.1,> 100,59.1,> 27.1,> 100,2.45,> 48.1,> 100,–,–,–,–,–,–,–,–,–,–
Cc1c(C(=O)O)n2c(=S)[nH]nc2c2ccccc12,> 100,> 100,> 100,> 100,> 100,> 100,> 100,> 100,> 100,> 100,–,–,–,–,–,–,–,–,–,–
CSc1cc(Cl)c(C)cc1S(=O)(=O)NC(=O)NNc1ccc(F)cc1,> 100,> 100,> 100,> 100,> 100,> 100,> 100,> 100,> 100,> 100,–,–,–,–,–,–,–,–,–,–
O=C1c2ccccc2C(=O)N1n1c(Cc2ccc(Cl)cc2)n[nH]c1=O,> 100,> 100,> 100,> 100,> 100,> 100,> 100,> 100,> 100,> 100,–,–,–,–,–,–,–,–,–,–
N[C@H]1c2c(Br)sc(Br)c2C(=O)[C@H]1O,41.8,36,22.2,24.3,39.4,> 100,29.7,> 61.9,30.8,10.6,–,–,–,–,–,–,–,–,–,–
COc1ccc2c(c1)N(Cc1ccc(Cl)cc1)CCC2N1CCCC1=O (configuration not stated),4.61,69.3,20,> 100,> 100,29.3,59.6,> 100,> 100,> 100,2.05,4.94,7.2,5.33,4,2.66,3.54,4.84,3.28,4.42
CN(C)Cc1c(O)ccc2c1c1c(n2C)C(=O)c2ccccc2C1=O,23.1,> 100,40,> 100,> 100,23.9,> 100,48.4,5.19,18.6,–,–,–,–,–,–,–,–,–,–
COc1cc(C2S/C(=C/c3ccccc3)C(=O)N2Cc2ccccc2)cc(OC)c1OC (configuration not stated),> 100,–,> 100,> 100,> 100,> 100,> 100,–,> 100,> 100,–,–,–,–,–,–,–,–,–,–
Cc1ccc(S(=O)(=O)N2CCC[C@@H]2C(=O)O[C@@H]2CCC3CC=CC32)cc1 (some centres not stated),29.2,> 100,31.2,> 100,> 100,> 100,> 100,38.8,> 100,38.9,–,–,–,–,–,–,–,–,–,–
CN(c1ccccc1)S(=O)(=O)c1ccc([N+](=O)[O-])cc1,–,> 100,> 100,> 100,> 100,> 100,> 100,> 100,> 100,> 100,–,–,–,–,–,–,–,–,–,–
COc1cc(C2c3cc4c(cc3OC(NNc3ccccc3)C2C)OCO4)cc(OC)c1OC (configuration not stated),21,1.67,10.3,–,> 31.2,38,13.2,19.2,6.61,> 37.8,–,–,–,–,–,–,–,–,–,–
N#Cc1c(N)oc(-c2ccc([N+](=O)[O-])cc2)c1C#N,36.4,48.3,> 100,53.1,59.3,> 100,> 100,–,> 100,> 100,–,–,–,–,–,–,–,–,–,–
Cc1cc2cc3cc(C)c(N)cc3nc2cc1N,14.6,–,1.98,2.2,1.87,2.03,–,1.85,1.6,2.11,–,–,–,–,–,–,–,–,–,–
Cc1c(Cc2ccccc2)n(C(C)OCCN(OC(=O)Oc2ccccc2)C(=O)Oc2ccccc2)c(=O)[nH]c1=O (configuration not stated),28.4,37.4,34.9,28.3,85.1,29.9,38.3,37.7,32.1,–,–,–,–,–,–,–,–,–,–,–
Cn1c(-c2ccc(-c3cc(-c4cccs4)c(-c4cccs4)n3C)cc2)cc(-c2cccs2)c1-c1cccs1,> 100,> 100,> 100,> 100,> 100,> 100,> 100,–,> 100,–,–,–,–,–,–,–,–,–,–,–
CCn1c2nc(=O)n(CCCCCCCCSC(c3ccccc3)(c3ccccc3)c3ccccc3)c(=O)c-2nc2ccccc21,22.9,> 100,–,> 100,> 100,> 100,> 100,> 100,18.1,> 100,–,–,–,–,–,–,–,–,–,–
CC(C)C(Nc1ncnc2nc[nH]c12)C(=O)O (configuration not stated),> 100,–,> 100,> 100,> 100,> 100,> 100,> 100,> 100,> 100,–,–,–,–,–,–,–,–,–,–
O=c1ccc2ccc(CBr)cc2o1,8.96,13.9,–,3.45,30.8,–,3.36,–,6.41,3.01,–,–,–,–,–,–,–,–,–,–
COc1ccc2c(c1)CC[C@@H]1C2CC[C@]2(C)C(=O)N(CCN(C)C)C(=O)CC12 (some centres not stated),> 100,> 100,> 100,–,> 100,> 100,> 100,> 100,> 100,–,–,–,–,–,–,–,–,–,–,–
Clc1cc(-c2ccccc2)nc(Nc2nc3ccccc3[nH]2)n1,> 100,> 100,51,22,> 100,> 100,30.7,–,45.6,–,–,–,–,–,–,–,–,–,–,–
CCOC(=O)c1c(NS(=O)(=O)c2ccc(C)cc2)sc2c1CCCC2,> 100,> 100,37.9,42.1,> 100,93.8,–,47.5,47.6,–,–,–,–,–,–,–,–,–,–,–
